The numbers were not newly measured in patent publication US10918602B2, “Compositions and methods for preparing polymeric films loaded with uniformly distributed drug particles” (New Jersey Institute of Technology, priority 2017, dated 2021), which cites them from elsewhere.

The conditions of the series: literature examples.

SMILES strings stand for the structures.

Turning to `CN1C(=O)CN=C(c2ccccc2)c2cc(Cl)ccc21` [diazepam], the Diffusional exponent n is given as 0.82. For the molecule `COc1ccc2c(c1)c(CC(=O)O)c(C)n2C(=O)c1ccc(Cl)cc1` [indomethacin], the Diffusional exponent n was 0.9.
